Measurements: EP0908457B1, “3-(1,2-benzisothiazol- and isoxazol-5-Y1)-2,4(1H,3H)-pyrimidinedione or thione and 3-(1,2-benzisothiazol- and isoxazol-5-y1)-4(3H)-pyrimidinone or thione herbicidal agents” (BASF AKTIENGESELLSCHAFT, priority 1997, dated 1999)

Legend:
[1] = test system: Echinochloa oryzoides (Ard.) Fritsch.; experiment: Preemergence weed control under flooded paddy conditions, ECHORC (Watergrass (Calif.)); format: in vivo; settings: preemergence, flooded paddy, rated three to four weeks after treatment
[2] = test system: Cyperus iria; experiment: Preemergence weed control under flooded paddy conditions, CYPIR (Rice Flatsedge); format: in vivo; settings: preemergence, flooded paddy, rated three to four weeks after treatment
[3] = test system: Cyperus serotinus, Rottb.; experiment: Preemergence weed control under flooded paddy conditions, CYPSE (Flatsedge); format: in vivo; settings: preemergence, rated three to four weeks after treatment
[4] = test system: Monochoria vaginalis, Presl.; experiment: Preemergence weed control under flooded paddy conditions, MOOVA (Monochoria); format: in vivo; settings: preemergence, flooded paddy, rated three to four weeks after treatment
[5] = test system: Sagittaria pygmaea, L.; experiment: Preemergence weed control under flooded paddy conditions, SAGPY (Arrowhead (Pygmaea)); format: in vivo; settings: preemergence, flooded paddy, rated three to four weeks after treatment
[6] = test system: Oryza sativa, (L.) Tebonnet; experiment: Rice tolerance to post-transplant applications under flooded paddy conditions (Example 187), ORYSAT (Rice, Tebonnet); settings: rated three to four weeks after treatment

SMILES	ECHORC herbicidal effect rating ([1]; Rate 0.0620 kg/ha)	ECHORC herbicidal effect rating ([1]; Rate 0.1250 kg/ha)	ECHORC herbicidal effect rating ([1]; Rate 0.2500 kg/ha)	CYPIR herbicidal effect rating ([2]; Rate 0.0620 kg/ha)	CYPIR herbicidal effect rating ([2]; Rate 0.1250 kg/ha)	CYPIR herbicidal effect rating ([2]; Rate 0.2500 kg/ha)	CYPSE herbicidal effect rating ([3]; Rate 0.0620 kg/ha)	CYPSE herbicidal effect rating ([3]; Rate 0.2500 kg/ha)	MOOVA herbicidal effect rating ([4]; Rate 0.0620 kg/ha)	MOOVA herbicidal effect rating ([4]; Rate 0.1250 kg/ha)	MOOVA herbicidal effect rating ([4]; Rate 0.2500 kg/ha)	SAGPY herbicidal effect rating ([5]; Rate 0.0620 kg/ha)	SAGPY herbicidal effect rating ([5]; Rate 0.2500 kg/ha)	ORYSAT herbicidal effect rating ([6]; Rate 0.2500 kg/ha)	ECHORC herbicidal effect rating ([1]; Rate 0.5000 kg/ha)	CYPIR herbicidal effect rating ([2]; Rate 0.5000 kg/ha)	CYPSE herbicidal effect rating ([3]; Rate 0.5000 kg/ha)	MOOVA herbicidal effect rating ([4]; Rate 0.5000 kg/ha)	SAGPY herbicidal effect rating ([5]; Rate 0.5000 kg/ha)	ORYSAT herbicidal effect rating ([6]; Rate 0.5000 kg/ha)	other results
Cn1c(C(F)(F)F)cc(=O)n(-c2ccc3snc(-c4ccccc4OCC(=O)NS(C)(=O)=O)c3c2)c1=O [Example 268, Acetamide, 2-{o-{5-[3,6-dihydro-3-methyl-2,6-dioxo-4-(trifluoromethyl)-1(2H)-pyrimidinyl]-1,2-benzisothiazol-3-yl}phenoxy}-N-(methylsulfonyl)-]	3.0	4.5	4.5	3.0	6.0	7.5	5.5	9.0	9.0	9.0	9.0	1.0	4.0	7.5							ECHORC herbicidal effect rating ([1]; Rate 0.0320 kg/ha): 1.0; CYPIR herbicidal effect rating ([2]; Rate 0.0320 kg/ha): 1.0; CYPSE herbicidal effect rating ([3]; Rate 0.0320 kg/ha): 1.0; CYPSE herbicidal effect rating ([3]; Rate 0.1250 kg/ha): 9.0; MOOVA herbicidal effect rating ([4]; Rate 0.0320 kg/ha): 7.5; SAGPY herbicidal effect rating ([5]; Rate 0.0320 kg/ha): 0.0; SAGPY herbicidal effect rating ([5]; Rate 0.1250 kg/ha): 1.0; ORYSAT herbicidal effect rating ([6]; Rate 0.0320 kg/ha): 3.5; ORYSAT herbicidal effect rating ([6]; Rate 0.0620 kg/ha): 4.0; ORYSAT herbicidal effect rating ([6]; Rate 0.1250 kg/ha): 5.0
CC(=O)Nc1nnc(S(=O)(=O)NC(=O)COc2ccc(C)cc2-c2nsc3ccc(-n4c(=O)cc(C(F)(F)F)n(C)c4=O)cc23)s1 [Example 269, Acetamide, N-[(5-acetamido-1,3,4-thiadiazol-2-yl)sulfonyl]-2-{{2-{5-[3,6-dihydro-3-methyl-2,6-dioxo-4-(trifluoromethyl)-1(2H)-pyrimidinyl]-1,2-benzisothiazol-3-yl}-p-tolyl}oxy}-]			0.0			0.0		0.0			0.0		0.0	0.0	4.0	0.0	0.0	9.0	0.0	0.0	
Cc1ccc(OCC(=O)NS(=O)(=O)c2c(C)noc2C)c(-c2nsc3ccc(-n4c(=O)cc(C(F)(F)F)n(C)c4=O)cc23)c1 [Example 270, Acetamide, 2-{{2-{5-[3,6-dihydro-3-methyl-2,6-dioxo-4-(trifluoromethyl)-1(2H)-pyrimidinyl]-1,2-benzisothiazol-3-yl}-p-tolyl}oxy}-N-[(3,5-dimethylisoxazol-4-yl)sulfonyl]-]	2.7	4.3	9.0	9.0	9.0	9.0	0.0	9.0	9.0	9.0	9.0	0.0	0.0	8.0	9.0	9.0	3.0	9.0	5.0	2.0	ECHORC herbicidal effect rating ([1]; Rate 0.0320 kg/ha): 1.3; CYPIR herbicidal effect rating ([2]; Rate 0.0320 kg/ha): 8.0; CYPSE herbicidal effect rating ([3]; Rate 0.0320 kg/ha): 0.0; CYPSE herbicidal effect rating ([3]; Rate 0.1250 kg/ha): 7.0; MOOVA herbicidal effect rating ([4]; Rate 0.0320 kg/ha): 9.0; SAGPY herbicidal effect rating ([5]; Rate 0.0320 kg/ha): 0.0; SAGPY herbicidal effect rating ([5]; Rate 0.1250 kg/ha): 0.0; ORYSAT herbicidal effect rating ([6]; Rate 0.0320 kg/ha): 4.0; ORYSAT herbicidal effect rating ([6]; Rate 0.0620 kg/ha): 4.0; ORYSAT herbicidal effect rating ([6]; Rate 0.1250 kg/ha): 7.0
Cc1nsc2ccc(-n3c(=O)c(Cl)c(C(F)(F)F)n(C)c3=O)cc12 [Example 271, 2,4(1H,3H)-Pyrimidinedione, 5-chloro-1-methyl-3-(3-methyl-1,2-benzisothiazol-5-yl)-6-(trifluoromethyl)-]	0.0	0.0	0.0	0.0	0.0	0.0	0.0	0.0	0.0	4.0	9.0	0.0	0.0	3.0	0.0	0.0	0.0	9.0	0.0	0.0	CYPSE herbicidal effect rating ([3]; Rate 0.1250 kg/ha): 0.0; SAGPY herbicidal effect rating ([5]; Rate 0.1250 kg/ha): 0.0; ORYSAT herbicidal effect rating ([6]; Rate 0.0620 kg/ha): 1.0; ORYSAT herbicidal effect rating ([6]; Rate 0.1250 kg/ha): 2.0
COC(=O)CS(=O)(=O)Cc1nsc2ccc(-n3c(=O)cc(C(F)(F)F)n(C)c3=O)cc12 [Example 272, Acetic acid, {{{5-[3,6-dihydro-3-methyl-2,6-dioxo-4-(trifluoromethyl)-1(2H)-pyrimidinyl]-1,2-benzisothiazol-3-yl}methyl}sulfonyl}-, methyl ester]															0.0	0.0	0.0	0.0	0.0	0.0	
Cn1c(C(F)(F)F)cc(=O)n(-c2ccc3snc(-c4ccc(OCC(=O)OC(C)(C)C)cc4)c3c2)c1=O [Example 273, Acetic acid, {p-{5-[3,6-dihydro-3-methyl-2,6-dioxo-4-(trifluoromethyl)-1(2H)-pyrimidinyl]-1,2-benzisothiazol-3-yl}phenoxy}-, tert-butyl ester]	5.1	6.0	9.0	9.0	9.0	9.0	0.0	7.0	9.0	9.0	9.0	0.0	6.0	4.0	9.0	4.0	9.0	9.0	0.0	3.0	ECHORC herbicidal effect rating ([1]; Rate 0.0320 kg/ha): 3.9; CYPIR herbicidal effect rating ([2]; Rate 0.0320 kg/ha): 6.0; CYPSE herbicidal effect rating ([3]; Rate 0.0320 kg/ha): 0.0; MOOVA herbicidal effect rating ([4]; Rate 0.0320 kg/ha): 9.0; SAGPY herbicidal effect rating ([5]; Rate 0.0320 kg/ha): 0.0; SAGPY herbicidal effect rating ([5]; Rate 0.1250 kg/ha): 0.0; ORYSAT herbicidal effect rating ([6]; Rate 0.0320 kg/ha): 0.0; ORYSAT herbicidal effect rating ([6]; Rate 0.0620 kg/ha): 2.0; ORYSAT herbicidal effect rating ([6]; Rate 0.1250 kg/ha): 3.0
COC(=O)COc1c(-c2nsc3ccc(-n4c(=O)cc(C(F)(F)F)n(C)c4=O)cc23)ccc(C)c1C [Example 274, Acetic acid, {{6-{5-[3,6-dihydro-3-methyl-2,6-dioxo-4-(trifluoromethyl)-1(2H)-pyrimidinyl]-1,2-benzisothiazol-3-yl}-2,3-xylyl}oxy}-, methyl ester]	4.1	5.9	9.0	8.0	9.0	9.0	2.0	9.0	9.0	9.0	9.0	0.0	9.0	8.0	9.0	2.0	9.0	9.0	4.0	7.0	ECHORC herbicidal effect rating ([1]; Rate 0.0320 kg/ha): 3.3; CYPIR herbicidal effect rating ([2]; Rate 0.0320 kg/ha): 7.0; CYPSE herbicidal effect rating ([3]; Rate 0.0320 kg/ha): 0.0; CYPSE herbicidal effect rating ([3]; Rate 0.1250 kg/ha): 8.0; MOOVA herbicidal effect rating ([4]; Rate 0.0320 kg/ha): 9.0; SAGPY herbicidal effect rating ([5]; Rate 0.0320 kg/ha): 0.0; SAGPY herbicidal effect rating ([5]; Rate 0.1250 kg/ha): 4.0; ORYSAT herbicidal effect rating ([6]; Rate 0.0320 kg/ha): 2.0; ORYSAT herbicidal effect rating ([6]; Rate 0.0620 kg/ha): 4.0; ORYSAT herbicidal effect rating ([6]; Rate 0.1250 kg/ha): 4.0
